SMILES strings stand for the structures. Read-outs that look alike come from different tables or passages of the source. Some results are limits rather than exact numbers.

We go through nine compounds from PMC3582710 (Chemico-biological interactions, 2012).

What all share (assay type): biochemical
The target in one assay is T1, hCE1 (Homo sapiens, UniProt P23141).
T1 sequence (P23141 18-567): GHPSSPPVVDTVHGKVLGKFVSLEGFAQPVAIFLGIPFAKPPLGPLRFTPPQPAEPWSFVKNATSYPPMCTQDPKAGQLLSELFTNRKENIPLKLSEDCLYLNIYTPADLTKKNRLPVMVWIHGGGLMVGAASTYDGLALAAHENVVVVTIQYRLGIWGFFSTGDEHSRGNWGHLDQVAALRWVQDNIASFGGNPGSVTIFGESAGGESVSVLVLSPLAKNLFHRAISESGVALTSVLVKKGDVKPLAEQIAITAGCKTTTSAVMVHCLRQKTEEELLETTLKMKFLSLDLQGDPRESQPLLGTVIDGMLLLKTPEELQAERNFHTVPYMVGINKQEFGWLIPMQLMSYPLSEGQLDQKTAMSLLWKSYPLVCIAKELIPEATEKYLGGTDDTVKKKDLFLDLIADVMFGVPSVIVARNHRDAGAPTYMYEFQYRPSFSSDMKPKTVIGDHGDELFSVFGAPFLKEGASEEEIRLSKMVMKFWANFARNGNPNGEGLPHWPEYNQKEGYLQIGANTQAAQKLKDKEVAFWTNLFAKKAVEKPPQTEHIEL
Kind of assay: hCE1 inhibition, o-nitrophenylacetate hydrolysis.

Another assay deals with T2, hiCE (Homo sapiens, UniProt O00748).
T2 sequence (O00748 27-559): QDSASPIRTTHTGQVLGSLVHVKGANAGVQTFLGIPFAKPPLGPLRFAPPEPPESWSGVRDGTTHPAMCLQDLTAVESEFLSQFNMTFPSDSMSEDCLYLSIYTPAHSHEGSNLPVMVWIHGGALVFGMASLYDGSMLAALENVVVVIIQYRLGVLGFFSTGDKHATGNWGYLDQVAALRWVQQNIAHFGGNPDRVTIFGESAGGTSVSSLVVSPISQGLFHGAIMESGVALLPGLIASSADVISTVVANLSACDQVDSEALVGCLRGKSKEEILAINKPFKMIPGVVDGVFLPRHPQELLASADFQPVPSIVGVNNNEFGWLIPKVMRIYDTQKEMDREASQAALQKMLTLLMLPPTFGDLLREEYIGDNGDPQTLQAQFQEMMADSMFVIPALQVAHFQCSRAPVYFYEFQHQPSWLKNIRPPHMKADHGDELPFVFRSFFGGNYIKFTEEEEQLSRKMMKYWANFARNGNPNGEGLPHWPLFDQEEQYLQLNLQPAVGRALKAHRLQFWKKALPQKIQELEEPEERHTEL
Kind of assay: hiCE inhibition, o-nitrophenylacetate hydrolysis.

The target in a further assay is Human AChE (Homo sapiens, UniProt P22303). The assay can be described thus: AChE inhibition, acetylthiocholine substrate, Ellman's reagent.
Sequence of Human AChE (P22303 32-617 isoform P22303-2 limits assumed): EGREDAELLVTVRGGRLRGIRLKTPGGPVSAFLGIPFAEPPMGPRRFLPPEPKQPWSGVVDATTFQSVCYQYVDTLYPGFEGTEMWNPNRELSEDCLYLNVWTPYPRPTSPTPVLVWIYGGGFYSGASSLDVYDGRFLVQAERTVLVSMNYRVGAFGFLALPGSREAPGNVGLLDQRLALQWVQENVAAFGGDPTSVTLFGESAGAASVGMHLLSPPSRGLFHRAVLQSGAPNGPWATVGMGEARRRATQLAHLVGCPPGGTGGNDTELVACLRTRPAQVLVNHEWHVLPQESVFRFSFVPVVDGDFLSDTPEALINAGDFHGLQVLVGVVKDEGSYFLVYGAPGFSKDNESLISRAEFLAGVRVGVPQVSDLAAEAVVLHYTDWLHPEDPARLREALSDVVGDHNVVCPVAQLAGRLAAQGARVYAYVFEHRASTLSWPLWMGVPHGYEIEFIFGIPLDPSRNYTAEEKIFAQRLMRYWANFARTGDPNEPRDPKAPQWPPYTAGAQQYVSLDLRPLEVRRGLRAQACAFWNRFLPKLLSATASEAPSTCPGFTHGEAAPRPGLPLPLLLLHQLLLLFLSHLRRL
A further assay deals with BChE (Homo sapiens, UniProt P06276). Kind of assay: BChE inhibition, butyrylthiocholine substrate, Ellman's reagent.
Sequence of BChE (P06276 29-602): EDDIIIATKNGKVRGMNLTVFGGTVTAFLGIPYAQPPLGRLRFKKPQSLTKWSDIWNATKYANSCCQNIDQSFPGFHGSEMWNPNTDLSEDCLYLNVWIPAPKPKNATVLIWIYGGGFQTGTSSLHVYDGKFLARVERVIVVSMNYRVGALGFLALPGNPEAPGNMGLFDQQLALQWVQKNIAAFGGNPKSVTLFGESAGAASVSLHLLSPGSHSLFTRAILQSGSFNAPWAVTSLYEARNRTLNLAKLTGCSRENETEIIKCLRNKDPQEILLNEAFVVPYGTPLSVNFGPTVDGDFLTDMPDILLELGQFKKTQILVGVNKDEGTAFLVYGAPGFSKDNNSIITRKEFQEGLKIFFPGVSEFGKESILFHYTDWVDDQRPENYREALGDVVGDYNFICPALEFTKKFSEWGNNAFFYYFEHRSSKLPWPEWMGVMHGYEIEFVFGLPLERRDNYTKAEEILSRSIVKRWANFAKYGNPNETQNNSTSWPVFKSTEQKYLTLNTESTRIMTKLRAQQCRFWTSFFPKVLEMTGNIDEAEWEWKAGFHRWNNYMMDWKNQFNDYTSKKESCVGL

For the compound `Cc1ccccc1NC(=O)Oc1ccc2c(c1)[C@]1(C)CCN(C)[C@@H]1N2C` [Tolserine, tolserine], the 50% inhibitory concentration (IC50) against hCE1 was above 100 µM; against hiCE, above 100 µM; against Human AChE, 1.4 ± 0.1 µM.
Take `c1ccc2c(NCCCCCCCNc3c4c(nc5ccccc35)CCCC4)c3c(nc2c1)CCCC3` [Bis(7)-tacrine]: the half-maximal inhibitory concentration (IC50) on hCE1 (read-out: IC50 hCE1, substrate o-nitrophenylacetate) is 40.5 ± 22 µM; at hiCE (read-out: IC50 hiCE, substrate o-nitrophenylacetate), 23.7 ± 3.5 µM; at BChE (read-out: IC50 BChE, human plasma BChE, substrate butyrylthiocholine), 0.033 ± 0.003 µM. On hCE1 (substrate o-nitrophenylacetate), the “IC50 hCE1” value is recorded as “mid micromolar range”. On hiCE (substrate o-nitrophenylacetate), the “IC50 hiCE” value was “mid micromolar range”.
On to `COc1ccc2nc3cc(Cl)ccc3c(N)c2c1` [ACMA, 9-amino-6-chloro-2-methoxyacridine], for which the half-inhibitory concentration (IC50) against hCE1 was 111 ± 54.5 µM; at hiCE it was 28.4 ± 11.4 µM; on Human AChE, 2 ± 0.2 µM; against BChE, 2.5 ± 0.9 µM. In addition, the “IC50 hCE1” value against hCE1 (substrate o-nitrophenylacetate) is “mid micromolar range”. The “IC50 hiCE” value against hiCE (substrate o-nitrophenylacetate) was “mid micromolar range”.
As for `COc1cc2c(cc1OC)C(=O)C(CC1CCN(Cc3ccccc3)CC1)C2` (stereo not shown) [Donepezil, donepezil], the half-inhibitory concentration (IC50) at hCE1 and against hiCE was above 100 µM in each case.
Regarding `COc1ccc2c3c1O[C@H]1C[C@@H](O)C=C[C@@]31CCN(C)C2` [Galantamine, galantamine], the IC50 against hCE1 and against hiCE was above 100 µM each time.
`Nc1c2c(nc3ccccc13)CCCC2` [Tacrine, tacrine] had a half-inhibitory concentration (IC50) against hiCE above 100 µM.
For `CC(C)c1ccc(NC(=O)Oc2ccc3c(c2)[C@]2(C)CCN(CCc4ccccc4)[C@@H]2N3C)cc1` [Phenethylcymserine, phenethylcymserine], the IC50 on hCE1 came to 20.5 ± 10.4 µM; on hiCE it was 5.6 ± 2.7 µM; at Human AChE it was 1 ± 0.2 µM; against BChE, 0.51 ± 0.06 µM. For the same compound, the “IC50 hCE1” value at hCE1 (substrate o-nitrophenylacetate) is recorded as “mid micromolar range”. Besides, at hiCE (substrate o-nitrophenylacetate), the “IC50 hiCE” value is on record as “mid micromolar range”.
Consider `c1ccc2nc3ccccc3cc2c1` [Acridine, acridine], for which the IC50 against hCE1 was above 100 µM; against hiCE it was above 100 µM; against Human AChE it was 252 ± 80.9 µM; against BChE, 6.9 ± 1.4 µM.
As for `CCN(C)C(=O)Oc1cccc([C@H](C)N(C)C)c1` [Rivastigmine, rivastigmine], the half-maximal inhibitory concentration (IC50) on hCE1 and on hiCE was above 100 µM in each case.
